We go through ten compounds from US12084420B2, “Indoline compounds for inhibiting KIF18A” (Volastra Therapeutics, Inc., priority 2021, dated 2024).

As usually defined, the IC50 is the concentration that gives 50% inhibition. A higher IC50 goes with a need for much substance.

Structures are written as SMILES.

hKIF18A (1-374), sequence (Q8NI77 whole entry, looked up): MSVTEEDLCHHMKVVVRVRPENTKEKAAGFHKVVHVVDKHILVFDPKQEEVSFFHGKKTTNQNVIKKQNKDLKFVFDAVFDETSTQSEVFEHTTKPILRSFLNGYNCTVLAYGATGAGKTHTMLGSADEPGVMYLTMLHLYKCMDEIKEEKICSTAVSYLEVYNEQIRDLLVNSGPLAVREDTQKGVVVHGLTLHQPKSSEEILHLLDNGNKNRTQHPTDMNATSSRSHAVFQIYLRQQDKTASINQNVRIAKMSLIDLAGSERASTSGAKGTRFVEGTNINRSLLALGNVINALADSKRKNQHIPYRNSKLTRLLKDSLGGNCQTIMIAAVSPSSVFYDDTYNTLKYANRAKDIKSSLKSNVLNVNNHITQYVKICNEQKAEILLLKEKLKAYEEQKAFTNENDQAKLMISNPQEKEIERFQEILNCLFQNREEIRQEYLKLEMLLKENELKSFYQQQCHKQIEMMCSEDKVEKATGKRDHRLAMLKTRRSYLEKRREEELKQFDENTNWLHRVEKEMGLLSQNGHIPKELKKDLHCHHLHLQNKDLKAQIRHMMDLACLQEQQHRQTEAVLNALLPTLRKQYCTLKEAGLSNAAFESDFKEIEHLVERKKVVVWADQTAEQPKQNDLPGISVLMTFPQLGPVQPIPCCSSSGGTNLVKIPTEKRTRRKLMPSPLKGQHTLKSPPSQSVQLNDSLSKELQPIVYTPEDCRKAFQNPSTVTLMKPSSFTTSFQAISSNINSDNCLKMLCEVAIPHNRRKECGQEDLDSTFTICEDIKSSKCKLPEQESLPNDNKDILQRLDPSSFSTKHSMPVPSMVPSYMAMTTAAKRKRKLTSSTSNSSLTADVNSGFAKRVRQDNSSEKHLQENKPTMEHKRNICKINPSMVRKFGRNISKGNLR
hKIF18A (1-374), sequence (Q2XVP4 whole entry partner, looked up): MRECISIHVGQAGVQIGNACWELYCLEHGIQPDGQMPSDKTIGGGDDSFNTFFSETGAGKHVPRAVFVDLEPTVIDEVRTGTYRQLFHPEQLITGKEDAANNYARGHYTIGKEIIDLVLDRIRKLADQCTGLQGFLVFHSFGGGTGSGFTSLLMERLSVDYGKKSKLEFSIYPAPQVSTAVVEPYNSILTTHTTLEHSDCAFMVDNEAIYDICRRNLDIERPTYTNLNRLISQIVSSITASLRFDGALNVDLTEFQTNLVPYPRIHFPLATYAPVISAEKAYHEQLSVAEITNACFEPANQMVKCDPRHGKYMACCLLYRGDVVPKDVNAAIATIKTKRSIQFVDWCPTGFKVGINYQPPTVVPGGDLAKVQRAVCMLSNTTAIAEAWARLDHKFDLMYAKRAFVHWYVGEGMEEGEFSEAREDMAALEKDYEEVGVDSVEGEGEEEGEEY
hKIF18A (1-374), sequence (P02554 whole entry partner, looked up): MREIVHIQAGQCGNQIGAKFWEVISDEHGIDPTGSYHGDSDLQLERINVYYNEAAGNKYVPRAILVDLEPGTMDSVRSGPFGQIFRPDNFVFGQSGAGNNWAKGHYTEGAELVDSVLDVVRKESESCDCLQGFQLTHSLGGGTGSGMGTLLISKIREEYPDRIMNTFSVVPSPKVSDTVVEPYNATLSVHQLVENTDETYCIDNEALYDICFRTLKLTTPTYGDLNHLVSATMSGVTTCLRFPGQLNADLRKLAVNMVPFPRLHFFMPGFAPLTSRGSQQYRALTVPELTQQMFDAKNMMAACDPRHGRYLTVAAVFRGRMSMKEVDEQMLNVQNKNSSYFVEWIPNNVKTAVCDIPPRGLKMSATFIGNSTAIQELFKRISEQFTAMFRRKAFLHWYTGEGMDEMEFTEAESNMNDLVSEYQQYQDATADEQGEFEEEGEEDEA

One experiment concerns the target hKIF18A (1-374) (Homo sapiens (Human), UniProt Q8NI77). The experiment is described as follows: Inhibition of KIF18A microtubule-dependent ATPase activity (ADP-Glo).
Settings: not given
In general terms: ADP-Glo first removes unused ATP, then detects ADP through luciferase.
Regarding `CS(=O)(=O)Nc1ccc2c(c1)C1(CCC3(CC3)CC1)CN2C(=O)c1cccc(S(=O)(=O)NC2CC(F)C2)c1` (stereo not shown) [Compound 204, N-(3-fluorocyclobutyl)-3-(5″- (methylsulfonamido)dispiro [cyclopropane-1,1′-cyclohexane-4′,3″- indoline]-1″-carbonyl)benzenesulfonamide], the 50% inhibitory concentration (IC50) stood at 0.013 µM.

The same experiment, now with this note: KIF18A microtubule-dependent ATPase activity, biochemical assay.
Take `CS(=O)(=O)Nc1ccc2c(c1)C1(CCC3(CC3)CC1)CN2C(=O)c1cccc(S(=O)(=O)NC2CCCCC2)c1` [Compound 180, N-cyclohexyl-3-(5″- (methylsulfonamido)dispiro[cyclopropane-1,1′-cyclohexane-4′,3″-indoline]-1″-carbonyl)benzenesulfonamide]: 0.011 µM corresponded to half-maximal inhibition (IC50).
`CC(NS(=O)(=O)c1cccc(C(=O)N2CC3(CCC4(CC4)CC3)c3cc(NS(C)(=O)=O)ccc32)c1)C1CCC1` (stereo not shown) [Compound 184, N-(1-cyclobutylethyl)-3-(5″- (methylsulfonamido)dispiro[cyclopropane-1,1′-cyclohexane-4′,3″-indoline]-1″-carbonyl)benzenesulfonamide]: half-maximal inhibition (IC50) required 0.033 µM.
Still for that read-out and setting: in the case of `CC(NS(=O)(=O)c1cccc(C(=O)N2CC3(CCC4(CC4)CC3)c3cc(NS(C)(=O)=O)ccc32)c1)C1CC1` (stereo not shown) [Compound 186, N-(1-cyclopropylethyl)-3-(5″- (methylsulfonamido)dispiro[cyclopropane-1,1′-cyclohexane-4′,3″-indoline]-1″-carbonyl)benzenesulfonamide] it was 0.012 µM; in that of `CC1(C)OCC1NS(=O)(=O)c1cccc(C(=O)N2CC3(CCC4(CC4)CC3)c3cc(NS(C)(=O)=O)ccc32)c1` (stereo not shown) [Compound 188, N-(2,2-dimethyloxetan-3-yl)-3-(5″- (methylsulfonamido)dispiro[cyclopropane-1,1′-cyclohexane-4′,3″-indoline]-1″-carbonyl)benzenesulfonamide], 0.075 µM.
Same read-out and setting: to `C=C1CC(NS(=O)(=O)c2cccc(C(=O)N3CC4(CCC5(CC5)CC4)c4cc(NS(C)(=O)=O)ccc43)c2)C1` [Compound 190, N-(3-methylenecyclobutyl)-3-(5″- (methylsulfonamido)dispiro[cyclopropane-1,1′-cyclohexane-4′,3″-indoline]-1″-carbonyl)benzenesulfonamide] belongs 0.0048 µM.
The same measure, in the same setting: to `CS(=O)(=O)Nc1ccc2c(c1)C1(CCC3(CC3)CC1)CN2C(=O)c1cccc(S(=O)(=O)NC2C=CCCC2)c1` (stereo not shown) [Compound 196, N-(cyclohex-2-en-1-yl)-3-(5″- (methylsulfonamido)dispiro[cyclopropane-1,1′-cyclohexane-4′,3″-indoline]-1″-carbonyl)benzenesulfonamide] belongs 0.01 µM.
Compound `CCC(CC)NS(=O)(=O)c1cccc(C(=O)N2CC3(CCC4(CC4)CC3)c3cc(NS(C)(=O)=O)ccc32)c1` [Compound 198, 3-(5″- (methylsulfonamido)dispiro[cyclopropane-1,1′-cyclohexane-4′,3″-indoline]-1″-carbonyl)-N-(pentan-3-yl)benzenesulfonamide] had an IC50 of 0.026 µM.
`COCC(C)NS(=O)(=O)c1cccc(C(=O)N2CC3(CCC4(CC4)CC3)c3cc(NS(C)(=O)=O)ccc32)c1` (stereo not shown) [Compound 200, N-(1-methoxypropan-2-yl)-3-(5″- (methylsulfonamido)dispiro[cyclopropane-1,1′-cyclohexane-4′,3″-indoline]-1″-carbonyl)benzenesulfonamide] returned a concentration for half-maximal inhibition (IC50) of 0.072 µM.
`CS(=O)(=O)Nc1ccc2c(c1)C1(CCC3(CC3)CC1)CN2C(=O)c1cccc(S(=O)(=O)NC2(CO)CC2)c1` [Compound 202, N-(1-(hydroxymethyl)cyclopropyl)-3-(5″- (methylsulfonamido)dispiro[cyclopropane-1,1′-cyclohexane-4′,3″-indoline]-1″-carbonyl)benzenesulfonamide] came in with a half-inhibitory concentration (IC50) of 0.053 µM.
